From PubChem BioAssay AID248 (DTP/NCI, 2004)
“And” between values parts separate entries of the source, which are not always exact repeats. Equal values may be shown once. Toxic doses and inconclusive results are not listed.

System: L1210 leukemia ip in BDF1 mice, survival T/C
Assay: NCI In Vivo Anticancer Drug Screen. Data for tumor model L1210 Leukemia (intraperitoneal) in B6D2F1 (BDF1) mice
Details: endpoint: mean survival time, higher = longer survival
In short: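 Read-out is survival time, reported as the treated-group measurement over the vehicle-control measurement.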

[1] = dose: 100.0 mg/kg/injection, schedule: Q04DX002 (ip), vehicle: Klucel (hydroxypropylcellulose) (HPC)
[2] = dose: 200.0 mg/kg/injection, schedule: Q04DX002 (ip), vehicle: Klucel (hydroxypropylcellulose) (HPC)
[3] = dose: 400.0 mg/kg/injection, schedule: Q04DX002 (ip), vehicle: Klucel (hydroxypropylcellulose) (HPC)
[4] = dose: 100.0 mg/kg/injection, schedule: Q04DX003 (ip), vehicle: saline with Tween-80
[5] = dose: 200.0 mg/kg/injection, schedule: Q04DX003 (ip), vehicle: saline with Tween-80
[6] = dose: 400.0 mg/kg/injection, schedule: Q04DX003 (ip), vehicle: saline with Tween-80

## O=[N+]([O-])c1ccc(O)c2ncccc12
dose: 25.0 mg/kg/injection, schedule: Q04DX002 (ip), vehicle: Klucel (hydroxypropylcellulose) (HPC)
  T/C: 102 % of control
dose: 50.0 mg/kg/injection, schedule: Q01DX001 (ip), vehicle: carboxymethylcellulose (CMC)
  T/C: 101 % of control
dose: 50.0 mg/kg/injection, schedule: Q01DX015 (ip), vehicle: saline
  T/C: 97 % of control
dose: 50.0 mg/kg/injection, schedule: Q04DX002 (ip), vehicle: Klucel (hydroxypropylcellulose) (HPC)
  T/C: 94 % of control and 102 % of control
dose: 100.0 mg/kg/injection, schedule: Q01DX001 (ip), vehicle: carboxymethylcellulose (CMC)
  T/C: 109 % of control
dose: 100.0 mg/kg/injection, schedule: Q01DX015 (ip), vehicle: saline
  T/C: 93 % of control
[1]
  T/C: 94 % of control (2×) and 95 % of control
dose: 200.0 mg/kg/injection, schedule: Q01DX001 (ip), vehicle: carboxymethylcellulose (CMC)
  T/C: 95 % of control
dose: 200.0 mg/kg/injection, schedule: Q01DX015 (ip), vehicle: saline
  T/C: 95 % of control
[2]
  T/C: 110 % of control
dose: 400.0 mg/kg/injection, schedule: Q01DX015 (ip), vehicle: saline
  T/C: 91 % of control
[3]
  T/C: 91 % of control

## Oc1ccc(N=Cc2ccccc2O)cc1
dose: 100.0 mg/kg/injection, schedule: Q01DX001 (ip), vehicle: saline
  T/C: 90 % of control
dose: 116.0 mg/kg/injection, schedule: Q01DX015 (ip), vehicle: steriod suspending solution
  T/C: 108 % of control
dose: 175.0 mg/kg/injection, schedule: Q01DX015 (ip), vehicle: steriod suspending solution
  T/C: 123 % of control
dose: 178.0 mg/kg/injection, schedule: Q01DX001 (ip), vehicle: steriod suspending solution
  T/C: 100 % of control
dose: 200.0 mg/kg/injection, schedule: Q01DX001 (ip), vehicle: saline
  T/C: 207 % of control
dose: 267.0 mg/kg/injection, schedule: Q01DX001 (ip), vehicle: steriod suspending solution
  T/C: 103 % of control
dose: 270.0 mg/kg/injection, schedule: Q01DX Z (ip), vehicle: carboxymethylcellulose (CMC)
  T/C: 104 % of control
dose: 400.0 mg/kg/injection, schedule: Q01DX001 (ip), vehicle: saline
  T/C: 260 % of control
dose: 400.0 mg/kg/injection, schedule: Q01DX001 (ip), vehicle: steriod suspending solution
  T/C: 101 % of control
dose: 400.0 mg/kg/injection, schedule: Q01DX Z (ip), vehicle: carboxymethylcellulose (CMC)
  T/C: 115 % of control
dose: 600.0 mg/kg/injection, schedule: Q01DX001 (ip), vehicle: steriod suspending solution
  T/C: 105 % of control

## CCCCCCCCCCCCCCCCCCc1ccc(O)cc1O
[4]
  T/C: 89 % of control
[5]
  T/C: 92 % of control
[6]
  T/C: 86 % of control

## CCCCN(CCCC)CCP(=O)(OCC)OCC
dose: 100.0 mg/kg/injection, schedule: Q04DX002 (ip), vehicle: saline with Tween-80
  T/C: 97 % of control
dose: 200.0 mg/kg/injection, schedule: Q04DX002 (ip), vehicle: saline with Tween-80
  T/C: 105 % of control

## CN(C(N)=S)c1ccccc1
[4]
  T/C: 101 % of control
[5]
  T/C: 102 % of control
[6]
  T/C: 104 % of control

## C/C=C/C1CCCCC1
dose: 50.0 mg/kg/injection, schedule: Q01DX009 (ip), vehicle: saline
  T/C: 97 % of control
dose: 100.0 mg/kg/injection, schedule: Q01DX009 (ip), vehicle: saline
  T/C: 97 % of control
dose: 200.0 mg/kg/injection, schedule: Q01DX009 (ip), vehicle: saline
  T/C: 93 % of control

## CCOC(=O)C(C)S(=O)(=O)/C(=C\N1CCCCC1)CC (stereo unspecified)
[1]
  T/C: 109 % of control
dose: 100.0 mg/kg/injection, schedule: Q04DX003 (ip), vehicle: other
  T/C: 104 % of control
[2]
  T/C: 98 % of control
dose: 200.0 mg/kg/injection, schedule: Q04DX003 (ip), vehicle: other
  T/C: 96 % of control
[3]
  T/C: 112 % of control
dose: 400.0 mg/kg/injection, schedule: Q04DX003 (ip), vehicle: other
  T/C: 102 % of control

## CCOC(=O)/C(Cc1cc[n+]([O-])c2ccccc12)=N/O
dose: 100.0 mg/kg/injection, schedule: Q01DX009 (ip), vehicle: Klucel (hydroxypropylcellulose) (HPC)
  T/C: 91 % of control
dose: 100.0 mg/kg/injection, schedule: Q04DX003 (ip), vehicle: Klucel (hydroxypropylcellulose) (HPC)
  T/C: 92 % of control
dose: 200.0 mg/kg/injection, schedule: Q01DX009 (ip), vehicle: Klucel (hydroxypropylcellulose) (HPC)
  T/C: 97 % of control
dose: 200.0 mg/kg/injection, schedule: Q04DX003 (ip), vehicle: Klucel (hydroxypropylcellulose) (HPC)
  T/C: 90 % of control
dose: 400.0 mg/kg/injection, schedule: Q01DX009 (ip), vehicle: Klucel (hydroxypropylcellulose) (HPC)
  T/C: 100 % of control
dose: 400.0 mg/kg/injection, schedule: Q04DX003 (ip), vehicle: Klucel (hydroxypropylcellulose) (HPC)
  T/C: 100 % of control
